Results from US20240262803A1, “COMPOUNDS, COMPOSITIONS AND METHODS OF TREATING DISORDERS” (Chungdu Anticancer Bioscience Ltd, priority 2021, published 2024).
Read-outs that look alike come from different tables or passages of the source.

Legend:
Type in all cases: cell-based
[1] = system: RPEMYC^H2B-GFP cells; assay: Mechanism-informed phenotypic screening assay (mitotic arrest, polyploidy; GE IN-Cell Analyzer 2000); conditions: 20 nM to 20 μM, 24, 48 or 72 hours, read-out: Min. Effective conc. for polyploidy (≥5%)
Method: We have Previously Developed a Mechanism-Informed Phenotypic Screening Assay to identify novel antimitotic agents (Li et al. 2019). Equipped with a prior understanding of the versatile functions of the chromosomal passenger protein (CPP) complex in orchestrating karyokinesis and cytokinesis, the screening assay is to score for phenotypes typically seen when the CPP complex is disabled. Specifically, the parameters for a positive hit are a temporary elevation of mitotic index (MI) at 24 hours of drug treatment and an accumulation of polyploid cells at 48 hours of drug treatment, indicative of mitotic arrest and cytokinetic failure respectively. These parameters exclude compounds that elicit only a prolonged arrest of cells in mitosis, a phenotype typically provoked by spindle toxins. The screening procedure is briefly summarized here. RPEMYC^H2B-GFP cells engineered to express a Histone 2B-EGFP fusion protein were passaged as batches of 96-well plates, 18-24 hours before exposure to the chemical compounds of the present disclosure at concentrations from 20 nM to 20 μM. At 24, 48 or 72 hours after initiation of treatment, cells were analyzed for either an arrest in mitosis or a change in DNA content by GE IN-Cell Analyzer 2000. As set forth in table 2 below, a value of greater than or equal to […] and less than or equal to 1.0 μM is marked e “A”; a value greater than […] and less than or equal to 10.0 μM is marked “B”; a value greater than 10.0 μM and less than or equal to 30.0 μM is marked “C”; and a value greater than 30.0 μM is marked “D.”

[2] = system: lung cancer cell line NCI-H23; assay: MTT assay of cellular proliferation, NCI-H23; conditions: Homo sapiens, read-out: EC50: Concentration that inhibits 50% of proliferation
Method: (§1) Six lung cancer cell lines (NCI-H23, NCI-H460, NCI-H596, NCI-H2170, Calu-6 and A549), two colon cancer cell lines (HCT116 and SW460), one breast cancer cell line MDA-MB-231, one gastric cancer cell line NCI-N87, one prostate cancer cell line DU145, one cervical cancer cell line Hela, and one glioblastoma cell line T98G were obtained from ATCC. The T2 HCC cell line was derived from a mouse liver cancer model initiated by a transgene of MYC (Reference). All cell lines were cultured in DMEM (Gibco, Cleveland, TN, USA) supplemented with 5% fetal bovine serum (Gibco), penicillin (100 U/mL)-streptomycin (100 μg/mL) (Gibco, Cat. No. 15140-122), 2 mM L-glutamine (Gibco, 200 mM solution, Cat. No. 25030081), and 1 mM sodium pyruvate (Gibco, 100 mM solution, Cat. No. 11360070) at 37° C. in a humidified incubator that was maintained at 5% CO2.
(§2) The MTT assay measures cellular metabolic activity as a proxy for cell viability and involves the conversion of the water-soluble yellow dye MTT [3-(4,5-dimethylthiazol-2-yl)-2,5-diphenyltetrazolium bromide] into an insoluble purple formazan by the action of mitochondrial reductase. Formazan is then solubilized and its concentration is determined by measuring the optical density (OD) value at a wavelength of 570 nm. The value is in proportional to the number of live cells with excellent linearity up to ˜10^6 cells per well. The MTT assay was used to determine the EC50 value, the concentration of a compound that leads to 50% inhibition of cellular proliferation. Briefly, cells were split when growing to the mid-Log phase. Cells in 100 μL of culture medium were seeded into each well of 96-well microplates and cultivated for 15˜24 hours to reach a confluence of 20˜30% and were then exposed to drugs at concentrations ranging from 1 nM to 10 μM. At the endpoint, 20 μL of a MTT stock solution in DMSO (5 mg/mL) was added to each well that contains […] of DMEM. The microplates were left in the cell culture incubator for 3˜4 h before subjected to solubilization and determination of formazan at A570 in a microplate reader (BioTek ELX808iu). […] Therefore, these compounds might hold a broad utility in the treatment of a large variety of human malignancies.

[3] = system: lung cancer cell line A549; assay: MTT assay of cellular proliferation, A549; conditions: Homo sapiens, read-out: EC50: Concentration that inhibits 50% of proliferation
Method: as §1, §2

[4] = system: colon cancer cell line HCT116; assay: MTT assay of cellular proliferation, HCT116; conditions: Homo sapiens, HCT-116, read-out: EC50: Concentration that inhibits 50% of proliferation
Method: as §1, §2

[5] = system: colon cancer cell line SW460; assay: MTT assay of cellular proliferation, SW460; conditions: Homo sapiens, SW480; read-out: EC50: Concentration that inhibits 50% of proliferation
Method: as §1, §2

[6] = system: breast cancer cell line MDA-MB-231; assay: MTT assay of cellular proliferation, MDA-MB-231; conditions: Homo sapiens, read-out: EC50: Concentration that inhibits 50% of proliferation
Method: as §1, §2

[7] = system: gastric cancer cell line NCI-N87; assay: MTT assay of cellular proliferation, NCI-N87; conditions: Homo sapiens, read-out: EC50: Concentration that inhibits 50% of proliferation
Method: as §1, §2

[8] = system: cervical cancer cell line Hela; assay: MTT assay of cellular proliferation, Hela; conditions: Homo sapiens, read-out: EC50: Concentration that inhibits 50% of proliferation
Method: as §1, §2

[9] = system: liver cancer cell line T2 HCC; assay: MTT assay of cellular proliferation, T2 HCC; conditions: Mus musculus, read-out: EC50: Concentration that inhibits 50% of proliferation
Method: as §1, §2

[10] = system: lung cancer cell line NCI-H23; assay: Minimal effective concentration that elicits polyploidy, NCI-H23; conditions: Homo sapiens, read-out: MECP: Minimal effective concentration that elicits polyploidy
[11] = system: lung cancer cell line A549; assay: Minimal effective concentration that elicits polyploidy, A549; conditions: Homo sapiens, read-out: MECP: Minimal effective concentration that elicits polyploidy
[12] = system: colon cancer cell line HCT116; assay: Minimal effective concentration that elicits polyploidy, HCT116; conditions: Homo sapiens, HCT-116, read-out: MECP: Minimal effective concentration that elicits polyploidy
[13] = system: SW480; assay: Minimal effective concentration that elicits polyploidy, SW480; conditions: Homo sapiens, read-out: MECP: Minimal effective concentration that elicits polyploidy
[14] = system: breast cancer cell line MDA-MB-231; assay: Minimal effective concentration that elicits polyploidy, MDA-MB-231; conditions: Homo sapiens, read-out: MECP: Minimal effective concentration that elicits polyploidy
[15] = system: cervical cancer cell line Hela; assay: Minimal effective concentration that elicits polyploidy, Hela; conditions: Homo sapiens, read-out: MECP: Minimal effective concentration that elicits polyploidy
[16] = system: gastric cancer cell line NCI-N87; assay: Minimal effective concentration that elicits polyploidy, NCI-N87; conditions: Homo sapiens, read-out: MECP: Minimal effective concentration that elicits polyploidy
[17] = system: liver cancer cell line T2 HCC; assay: Minimal effective concentration that elicits polyploidy, T2 HCC; conditions: Mus musculus, read-out: MECP: Minimal effective concentration that elicits polyploidy
[18] = system: RPEMYC^H2B-GFP cells; assay: Mechanism-informed phenotypic screening assay (mitotic arrest, polyploidy; GE IN-Cell Analyzer 2000); conditions: 20 nM to 20 μM, 24, 48 or 72 hours, read-out: Mitotic Arrest (≥5%)

Compound	EC50 [2]	EC50 [3]	EC50 [4]	EC50 [5]	EC50 [6]	EC50 [7]	EC50 [8]	EC50 [9]	minimal effective concentration [1]	minimal effective concentration [10]	minimal effective concentration [11]	minimal effective concentration [12]	minimal effective concentration [13]	minimal effective concentration [14]	minimal effective concentration [15]	minimal effective concentration [16]	minimal effective concentration [17]	minimal effective concentration [18]
CNC(=O)c1cc(OC)cc(Oc2ncccc2-c2ccncc2)c1 [Compound 4, 3-([3,4′-bipyridin]-2-yloxy)-5-methoxy-N-methylbenzamide]	1 to 1000 nM	1 to 1000 nM	1 to 1000 nM	1 to 1000 nM	1 to 1000 nM	1000 to 10000 nM	1 to 1000 nM	1 to 1000 nM	1 µM	0.001 to 1 µM	0.001 to 1 µM	0.001 to 1 µM	0.001 to 1 µM	0.001 to 1 µM	0.001 to 1 µM	0.001 to 1 µM	0.001 to 1 µM	1 µM
CNC(=O)c1cc(Oc2ncccc2-c2ccncc2)cc(OC(F)(F)F)c1 [Compound 7, 3-([3,4′-bipyridin]-2-yloxy)-N-methyl-5-(trifluoromethoxy)benzamide]	1 to 1000 nM	1 to 1000 nM	1 to 1000 nM	1 to 1000 nM	1 to 1000 nM	1 to 1000 nM	1 to 1000 nM	1 to 1000 nM	1 µM	0.001 to 1 µM	0.001 to 1 µM	0.001 to 1 µM	0.001 to 1 µM	0.001 to 1 µM	0.001 to 1 µM	0.001 to 1 µM	0.001 to 1 µM	1 µM
CNC(=O)c1cc(Oc2ncccc2-c2ccncc2)cc(C(F)(F)F)c1 [Compound 8, 3-([3,4′-bipyridin]-2-yloxy)-N-methyl-5-(trifluoromethyl)benzamide]	1 to 1000 nM	1 to 1000 nM	1 to 1000 nM	1 to 1000 nM	1 to 1000 nM	1 to 1000 nM	1 to 1000 nM	1 to 1000 nM	1 µM	0.001 to 1 µM	0.001 to 1 µM	0.001 to 1 µM	0.001 to 1 µM	0.001 to 1 µM	0.001 to 1 µM	0.001 to 1 µM	0.001 to 1 µM	1 µM
COc1cc(Oc2ncccc2-c2ccncc2)cc(-n2cncn2)c1 [Compound 12, 2-(3-methoxy-5-(1H-1,2,4-triazol-1-yl)phenoxy)-3,4′-bipyridine]	1 to 1000 nM	1 to 1000 nM	1 to 1000 nM	1 to 1000 nM	1 to 1000 nM	1 to 1000 nM	1 to 1000 nM	1 to 1000 nM	1 µM	0.001 to 1 µM	0.001 to 1 µM	0.001 to 1 µM	0.001 to 1 µM	0.001 to 1 µM	0.001 to 1 µM	0.001 to 1 µM	0.001 to 1 µM	1 µM
COc1cc(Oc2ncccc2-c2ccnc(N)n2)cc(-n2cccn2)c1 [Compound 26, 4-(2-(3-methoxy-5-(1H-pyrazol-1-yl)phenoxy)pyridin-3-yl)pyrimidin-2-amine]	1 to 1000 nM	1 to 1000 nM	1 to 1000 nM	1 to 1000 nM	1 to 1000 nM	1 to 1000 nM	1 to 1000 nM	1 to 1000 nM	1 µM	0.001 to 1 µM	0.001 to 1 µM	0.001 to 1 µM	0.001 to 1 µM	0.001 to 1 µM	0.001 to 1 µM	0.001 to 1 µM	0.001 to 1 µM	1 µM

The next lines start with results.

EC50 [2]	EC50 [3]	EC50 [4]	EC50 [5]	EC50 [6]	EC50 [7]	EC50 [8]	EC50 [9]	Compound	minimal effective concentration [1]	minimal effective concentration [10]	minimal effective concentration [11]	minimal effective concentration [12]	minimal effective concentration [13]	minimal effective concentration [14]	minimal effective concentration [15]	minimal effective concentration [16]	minimal effective concentration [17]	minimal effective concentration [18]
1 to 1000 nM	1 to 1000 nM	1 to 1000 nM	1 to 1000 nM	1 to 1000 nM	1 to 1000 nM	1 to 1000 nM	1 to 1000 nM	COc1cc(NC(C)=O)cc(Oc2ncccc2-c2ccncc2)c1 [Compound 13, N-(3-([3,4′-bipyridin]-2-yloxy)-5-methoxyphenyl)acetamide]	1 µM	0.001 to 1 µM	0.001 to 1 µM	0.001 to 1 µM	0.001 to 1 µM	0.001 to 1 µM	0.001 to 1 µM	0.001 to 1 µM	0.001 to 1 µM	1 µM
1 to 1000 nM	1 to 1000 nM	1 to 1000 nM	1 to 1000 nM	1 to 1000 nM	1 to 1000 nM	1 to 1000 nM	1 to 1000 nM	COc1cc(OC)cc(Oc2ncccc2-c2ccncc2)c1 [Compound 14, 2-(3,5-dimethoxyphenoxy)-3,4′-bipyridine]	1 µM	0.001 to 1 µM	0.001 to 1 µM	0.001 to 1 µM	0.001 to 1 µM	0.001 to 1 µM	0.001 to 1 µM	0.001 to 1 µM	0.001 to 1 µM	1 µM
